Measurements: patent publication US20200148803A1, “POLYMERIZABLE MULTIFUNCTIONAL ANTIMICROBIAL QUATERNARY AMMONIUM MONOMERS, METHODS OF SYNTHESIS, AND USES THEREOF” (ADA Foundation, priority 2018, published 2020)

What was measured:
[1] = test system: human gingival fibroblasts (HGF); assay: Cellular metabolic activity (CellTiter AQueous One Solution Reagent), HGF cells; assay type: cell-based; conditions: two-fold serial dilutions, 24 h and 72 h
Method: (§1) Immortalized human gingival fibroblasts (HGF) were purchased from Applied Biological Materials, Inc. (Richmond, British Columbia, Canada). […] For experiments, cells were obtained from a subconfluent stock culture.
(§2) Direct contact cytotoxicity testing was conducted as previously described^7, 8. Briefly, cells were exposed to two-fold serial dilutions of AMadh series monomers or AMsil series monomers to approximate the maximum possible exposure, (Table 9). Table 9 illustrates biocompatibility testing using maximum possible monomer exposure (mmol/L), assuming 7% mass fraction in the restorative with a maximum of 2% leaching. To account for multiplicity and variable size of restorations, a two- and four-fold greater dilution was also included in the testing. After 24 and 72 h, cells were assessed for cell viability using the LIVE/DEAD® Viability/Cytotoxicity kit (Life Technologies, Corp., Grand Island, N.Y.). Cellular metabolic activity was subsequently assessed using the CellTiter® AQueous One Solution Reagent (Promega, Corp., Madison, Wis.). Negative controls were without the novel monomer and/or cells. Mean+standard error was obtained from five independent replicates tested in triplicate.

[2] = Sessile drop water contact angle (CA) on resin pellets; assay type: physicochemical; conditions: 10 and 20 mass percent in UPE resin
Method: (§3) Experimental resin (UPE) was formulated from the commercially available monomers urethane dimethacrylate (UDMA, 50.91% w/w), polyethylene glycol extended urethane dimethacrylate (PEG-U, 18.18% w/w), and ethyl 2-(hydroxymethyl)acrylate (EHMA, 30.91% w/w). A conventional visible light initiator system comprised of camphorquinone (0.2% w/w) and ethyl-4-N,N-dimethylamino benzoate (4EDMAB, 0.8% w/w) was utilized. […] Copolymer specimens (beams) were prepared by depositing UPE (UPE resin control) and AM-UPE resins into glass molds (2 mm×2 mm×25 mm) and photopolymerizing them with a dental curing light (Triad 2000, Dentsply, Charlotte, N.C., USA) for 2 minutes from two sides. Copolymer specimens (pellets) were prepared by depositing UPE and AM-UPE resins into a stainless-steel mold (1 mm×16 mm), sandwiched between two sheets of Mylar film and two glass slides and photopolymerized in the same manner as the beam samples. Degree of vinyl conversion (DVC) of UPE and AM-UPE resins was determined utilizing beam samples by collecting the near infra-red (NIR) spectra (Nexus 670, ThermoFisher, Madison, Wis., USA) before and 24 h after polymerization and calculating the reduction in absorption band at 6165 cm^−1 corresponding to the vinyl (C═C—H) overtone signal. By maintaining a constant specimen thickness, a need for an invariant internal standard was eliminated. The DVC was calculated as: […]
(§4) where Area(polymer) and Area(monomer) correspond to the areas under 6165 cm^−1 peaks after and before the polymerization, respectively. After DVC analysis, flexural strength (FS) and elastic modulus (E) of beam specimen were determined employing the Universal Testing Machine (Instron 5500R, Instron Corp., Canton, Mass., USA). The load was applied (at cross-head speed of 1 mm/min) to the center of a specimen positioned on a test device with supports 20 mm apart. The FS and E of the specimens (three replicates/experimental group) was calculated as instructed in the ISO4049:2009 document. Changes in hydrophilicity/hydrophobicity of UPE resins due to the introduction of AM monomers were assessed on pellet specimen by sessile drop contact angle (CA) measurements (drop shape analyzer DSA100, Krüss GmbH, Hamburg, Germany). Following the deposition of 4 μL water droplets on the resin pellets, the pellets were imaged after 1 min resting time with a camera at the points of intersection (three-phase contact points) between the drop contour and the projection of the surface (baseline). The CA water values were calculated employing the Krüss Advance software. At least four repetitive measurements were performed in each group. Analysis of variance (ANOVA) and Newman-Keuls multiple paired comparisons (at 95% confidence level) were used to analyze the experimental data as a function of resin composition and establish a statistical significance of differences between the experimental groups (WINKS 7.0.9, TexaSoft, Cedar Hills, Tex., USA).

[3] = test system: mouse subcutaneous connective tissue fibroblasts (NCTC clone 929, CCL1); assay: Direct contact cytotoxicity, LIVE/DEAD viability, CCL1 cells; assay type: cell-based
[4] = Degree of vinyl conversion (DVC) by near infra-red spectra of copolymer beams; assay type: physicochemical
Method: as §3, §4

CCL1 cells = assay: Cellular metabolic activity (CellTiter AQueous One Solution Reagent), CCL1 cells; assay type: cell-based; conditions: two-fold serial dilutions, 24 h and 72 h
[5] = test system: human gingival fibroblasts (HGF); assay: Direct contact cytotoxicity, LIVE/DEAD viability, HGF cells; assay type: cell-based
Method: as §1, §2

[6] = two-fold serial dilutions, 24 h and 72 h

C=C(C)C(=O)OCC[N+](C)(C)CCCCCC(=O)O.[Br-] [AMadh1, 5-carboxy-N-(2-(methacryloyloxy)ethyl)-N,N-dimethylpentan-1-aminium bromide]
effect on metabolic activity of HGF cells [1]: Neither AMadh1 concentration nor time of exposure significantly affected the metabolic activity
effect on hydrophobic-hydrophilic properties of the copolymer [2]: did not alter the hydrophobic-hydrophilic properties
decrease of mean number of live CCL1 cells compared to all lower concentrations ([3]; 10.6 mmol/L, 72 h exposure): ≤ 2.5 fold
effect of monomer concentration on CCL1 cell viability ([3]; 24 h exposure, ≤10.6 mmol/L): insignificant
effect of monomer concentration on CCL1 cell viability [3, 6]: exerted a main effect
increase of DVC relative to UPE resin control ([4]; 10 mass percent in UPE resin): 2%
increase of DVC relative to UPE resin control ([4]; 20 mass percent in UPE resin): 3%
effect of monomer concentration on CCL1 metabolic activity (CCL1 cells): A main effect
dead HGF cells ([5]; 0.08 mmol/L, 24 h): 102.1 ± 0.9 % control
live HGF cells ([5]; 0.08 mmol/L, 24 h): 92.8 ± 11.3 % control
dead HGF cells ([5]; 0.08 mmol/L, 72 h): 99.5 ± 8.0 % control
live HGF cells ([5]; 0.08 mmol/L, 72 h): 121.6 ± 12.6 % control
dead HGF cells ([5]; 0.17 mmol/L, 24 h): 99.1 ± 1.7 % control
live HGF cells ([5]; 0.17 mmol/L, 24 h): 77.3 ± 15.9 % control
dead HGF cells ([5]; 0.17 mmol/L, 72 h): 98.8 ± 9.1 % control
live HGF cells ([5]; 0.17 mmol/L, 72 h): 95.1 ± 14.4 % control
dead HGF cells ([5]; 0.33 mmol/L, 24 h): 103.5 ± 3.7 % control
live HGF cells ([5]; 0.33 mmol/L, 24 h): 110.4 ± 9.7 % control
dead HGF cells ([5]; 0.33 mmol/L, 72 h): 102.0 ± 12.8 % control
live HGF cells ([5]; 0.33 mmol/L, 72 h): 116.8 ± 12.3 % control
dead HGF cells ([5]; 0.66 mmol/L, 24 h): 101.5 ± 2.5 % control
live HGF cells ([5]; 0.66 mmol/L, 24 h): 107.4 ± 4.7 % control
dead HGF cells ([5]; 0.66 mmol/L, 72 h): 92.1 ± 8.7 % control
live HGF cells ([5]; 0.66 mmol/L, 72 h): 133.0 ± 8.4 % control
dead HGF cells ([5]; 1.33 mmol/L, 24 h): 110.9 ± 7.1 % control
live HGF cells ([5]; 1.33 mmol/L, 24 h): 121.8 ± 8.2 % control
dead HGF cells ([5]; 1.33 mmol/L, 72 h): 89.5 ± 8.9 % control
live HGF cells ([5]; 1.33 mmol/L, 72 h): 107.6 ± 6.9 % control
dead HGF cells ([5]; 2.65 mmol/L, 24 h): 100.4 ± 1.0 % control
live HGF cells ([5]; 2.65 mmol/L, 24 h): 111.7 ± 10.0 % control
dead HGF cells ([5]; 2.65 mmol/L, 72 h): 104.0 ± 17.1 % control
live HGF cells ([5]; 2.65 mmol/L, 72 h): 107.8 ± 4.0 % control
dead HGF cells ([5]; 5.3 mmol/L, 24 h): 102.7 ± 2.6 % control
live HGF cells ([5]; 5.3 mmol/L, 24 h): 108.8 ± 14.8 % control
dead HGF cells ([5]; 5.3 mmol/L, 72 h): 88.9 ± 6.8 % control
live HGF cells ([5]; 5.3 mmol/L, 72 h): 130.5 ± 9.2 % control
dead HGF cells ([5]; 10.6 mmol/L, 24 h): 100.9 ± 1.7 % control
live HGF cells ([5]; 10.6 mmol/L, 24 h): 92.4 ± 10.8 % control
dead HGF cells ([5]; 10.6 mmol/L, 72 h): 90.3 ± 11.6 % control
live HGF cells ([5]; 10.6 mmol/L, 72 h): 103.7 ± 7.8 % control
effect of exposure time on HGF live cells, difference of means ([5]; 24 h vs 72 h, regardless of concentration): 10.4%
effect of monomer concentration on HGF cell viability [5, 6]: monomer concentration affected
number of live HGF cells in monomer-treated groups, median of least square means ([5]; ≤10.6 mmol/L, 24 h or 72 h, % control): 111.7%
